Test system: Endogenous Huntingtin Protein
Assay: Endogenous Huntingtin Protein Assay (ELISA-based Meso Scale Discovery electrochemiluminescence)
Type: cell-based
Settings: MSD electrochemiluminescence, Table 1
In short: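 Sandwich MSD electrochemiluminescence immunoassay. Capture used MW1 (expanded polyglutamine) or MAB2166 antibody coated at 1 μg/mL overnight at 4 °C. Samples were bound overnight at 4 °C, then a rabbit monoclonal detection antibody and SULFO-TAG anti-rabbit, each at 0.25 μg/mL, were applied for 1 h at room temperature.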

IC50 [µM] | Structure (SMILES)
1 to 3 | CC(C)NC1CCN(c2ncc(-c3ccc(-c4ccn(C)n4)cc3O)nn2)C1 (stereo not drawn) [Cpd 213, 5-(1-methyl-1H-pyrazol-3-yl)-2-(3-{3-[(propan-2-yl)amino]pyrrolidin-1-yl}-1,2,4-triazin-6-yl)phenol]
≤ 0.1 | Cn1ccc(-c2ccc(-c3cnc(N4CCC(NC(C)(C)C)C4)nn3)c(O)c2)cc1=O (stereo not drawn) [Cpd 214, 4-(4-{3-[3-(tert-butylamino)pyrrolidin-1-yl]-1,2,4-triazin-6-yl}-3-hydroxyphenyl)-1-methylpyridin-2(1H)-one]
0.1 to 0.5 | Cn1nnc2nc(-c3ccc(-c4cnc(N5CCC(NC(C)(C)C)C5)nn4)c(O)c3)ccc21 (stereo not drawn) [Cpd 215, 2-{3-[3-(tert-butylamino)pyrrolidin1-yl]-1,2,4-triazin-6-yl}-5-(1-methyl-1H-[1,2,3]triazolo[4,5-b]pyridin-5-yl)phenol]
0.1 to 0.5 | Cn1cnc(-c2ccc(-c3cnc(N4CCC(NC(C)(C)C)C4)nn3)c(O)c2)cc1=O (stereo not drawn) [Cpd 216, 6-(4-{3-[3-(tert-butylamino)pyrrolidin-1-yl]-1,2,4-triazin-6-yl}-3-hydroxyphenyl)-3-methylpyrimidin-4(3H)-one]
≤ 0.1 | COc1cc(-c2ccc(-c3cnc(N4CCC(NC(C)(C)C)C4)nn3)c(O)c2)ncn1 (stereo not drawn) [Cpd 217, 2-{3-[3-(tert-butylamino)pyrrolidin-1-yl]-1,2,4-triazin-6-yl}-5-(6-methoxypyrimidin-4-yl)phenol]
0.1 to 0.5 | CNC1CCN(c2ncc(-c3ccc(-n4nccn4)cc3O)nn2)C1 (stereo not drawn) [Cpd 218, 2-{3-[3-(methylamino)pyrrolidin-1-yl]-1,2,4-triazin-6-yl}-5-(2H-1,2,3-triazol-2-yl)phenol]
0.1 to 0.5 | CNC1CCN(c2ncc(-c3ccc(-n4cc(F)cn4)cc3O)nn2)C1 (stereo not drawn) [Cpd 219, 5-(4-fluoro-1H-pyrazol-1-yl)-2-{3-[3-(methylamino)pyrrolidin-1-yl]-1,2,4-triazin-6-yl}phenol]
> 0.5 | CNC1CCN(c2ncc(-c3ccc(-n4ccnc4)cc3O)nn2)C1 (stereo not drawn) [Cpd 220, 5-(1H-imidazol-1-yl)-2-{3-[3-(methylamino)pyrrolidin-1-yl]-1,2,4-triazin-6-yl}phenol]
> 0.5 | Cn1ncc2cc(-c3ccc(-c4cnc(N5CCC(NC(C)(C)C)C5)nn4)c(O)c3)cnc21 (stereo not drawn) [Cpd 221, 2-{3-[3-(tert-butylamino)pyrrolidin-1-yl]-1,2,4-triazin-6-yl}-5-(1-methyl-1H-pyrazolo[3,4-b]pyridin-5-yl)phenol]
0.1 to 0.5 | CN1CCC2(CC1)CN(c1ncc(-c3ccc(-c4ccc5c(cnn5C)c4)cc3O)nn1)C2 [Cpd 223]
1 to 3 | CN1CCC2(CC1)CN(c1ncc(-c3ccc(-c4cnc5c(cnn5C)c4)cc3O)nn1)C2 [Cpd 224, 2-[3-(7-methyl-2,7-diazaspiro[3.5]nonan-2-yl)-1,2,4-triazin-6-yl]-5-(1-methyl-1H-pyrazolo[3,4-b]pyridin-5-yl)phenol]
≤ 0.1 | CC(C)(C)NC1CCN(c2ncc(-c3ccc(-c4c[nH]nn4)cc3O)nn2)C1 (stereo not drawn) [Cpd 225, 2-{3-[3-(tert-butylamino)pyrrolidin-1-yl]-1,2,4-triazin-6-yl}-5-(1H-1,2,3-triazol-4-yl)phenol]
≤ 0.1 | CN1CCC2(CC1)CN(c1ncc(-c3ccc(-c4cnn(C)c4)cc3O)nn1)C2 [Cpd 226, 2-[3-(7-methyl-2,7-diazaspiro[3.5]nonan-2-yl)-1,2,4-triazin-6-yl]-5-(1-methyl-1H-pyrazol-4-yl)phenol]
≤ 0.1 | CC(C)NC1CCN(c2ncc(-c3ccc(-c4ccn(C)c(=O)c4)cc3O)nn2)C1 (stereo not drawn) [Cpd 227, 4-[3-hydroxy-4-(3-{3-[(propan-2-yl)amino]pyrrolidin-1-yl}-1,2,4-triazin-6-yl)phenyl]-1-methylpyridin-2(1H)-one]
≤ 0.1 | Cc1cn(-c2ccc(-c3cnc(N4CC5(CCN(C)CC5)C4)nn3)c(O)c2)cn1 [Cpd 228, 2-[3-(7-methyl-2,7-diazaspiro[3.5]nonan-2-yl)-1,2,4-triazin-6-yl]-5-(4-methyl-1H-imidazol-1-yl)phenol]
> 0.5 | CN1CCC2(CC1)CN(c1ncc(-c3ccc(-n4cc(F)cn4)cc3O)nn1)C2 [Cpd 229, 5-(4-fluoro-1H-pyrazol-1-yl)-2-[3-(7-methyl-2,7-diazaspiro[3.5]nonan-2-yl)-1,2,4-triazin-6-yl]phenol]
> 0.5 | CN1CCC2(CC1)CN(c1ncc(-c3ccc(-n4cnc(F)c4)cc3O)nn1)C2 [Cpd 230, 5-(4-fluoro-1H-imidazol-1-yl)-2-[3-(7-methyl-2,7-diazaspiro[3.5]nonan-2-yl)-1,2,4-triazin-6-yl]phenol]
0.1 to 0.5 | CN1CCC2(CC1)CN(c1ncc(-c3ccc(-n4ccnc4)cc3O)nn1)C2 [Cpd 231, 5-(1H-imidazol-1-yl)-2-[3-(7-methyl-2,7-diazaspiro[3.5]nonan-2-yl)-1,2,4-triazin-6-yl]phenol]

IC50 [µM] | Structure (SMILES)
≤ 0.1 | CN1CCC2(CC1)CN(c1ncc(-c3ccc(-n4nccn4)cc3O)nn1)C2 [Cpd 232, 2-[3-(7-methyl-2,7-diazaspiro[3.5]nonan-2-yl)-1,2,4-triazin-6-yl]-5-(2H-1,2,3-triazol-2-yl)phenol]
1 to 3 | CN1CCC2(CC1)CN(c1ncc(-c3ccc(-c4ccn(C)n4)cc3O)nn1)C2 [Cpd 233, 2-[3-(7-methyl-2,7-diazaspiro[3.5]nonan-2-yl)-1,2,4-triazin-6-yl]-5-(1-methyl-1H-pyrazol-3-yl)phenol]
0.1 to 0.5 | CC(C)NC1CCN(c2ncc(-c3ccc(-c4cc(=O)n(C)cn4)cc3O)nn2)C1 (stereo not drawn) [Cpd 234, 6-[3-hydroxy-4-(3-{3-[(propan-2-yl)amino]pyrrolidin-1-yl}-1,2,4-triazin-6-yl)phenyl]-3-methylpyrimidin-4(3H)-one]
≤ 0.1 | CC(C)NC1CCN(c2ncc(-c3ccc(-c4cn[nH]c4F)cc3O)nn2)C1 (stereo not drawn) [Cpd 235, 5-(5-fluoro-1H-pyrazol-4-yl)-2-(3-{3-[(propan-2-yl)amino]pyrrolidin-1-yl}-1,2,4-triazin-6-yl)phenol]
≤ 0.1 | CC(C)NC1CCN(c2ncc(-c3ccc(-c4cnn(C)n4)cc3O)nn2)C1 (stereo not drawn) [Cpd 236, 5-(2-methyl-2H-1,2,3-triazol-4-yl)-2-(3-{3-[(propan-2-yl)amino]pyrrolidin-1-yl}-1,2,4-triazin-6-yl)phenol]
0.1 to 0.5 | CC(C)NC1CCN(c2ncc(-c3ccc(-c4ncns4)cc3O)nn2)C1 (stereo not drawn) [Cpd 237, 2-(3-{3-[(propan-2-yl)amino]pyrrolidin-1-yl}-1,2,4-triazin-6-yl)-5-(1,2,4-thiadiazol-5-yl)phenol]
≤ 0.1 | Cc1cn(-c2ccc(-c3cnc(N[C@H]4CC(C)(C)NC(C)(C)[C@H]4F)nn3)c(O)c2)cn1 [Cpd 239, 2-{3-{[(3S,4S)-3-fluoro-2,2,6,6-tetramethylpiperidin-4-yl]amino}-1,2,4-triazin-6-yl)-5-(4-methyl-1H-imidazol-1-yl)phenol]
≤ 0.1 | CC1(C)C[C@H](Nc2ncc(-c3ccc(-n4cnc(F)c4)cc3O)nn2)[C@H](F)C(C)(C)N1 [Cpd 240, 5-(4-fluoro-1H-imidazol-1-yl)-2-(3-{[(3S,4S)-3-fluoro-2,2,6,6-tetramethylpiperidin-4-yl]amino}-1,2,4-triazin-6-yl)phenol]
≤ 0.1 | CN1CCC2(CC1)CN(c1ncc(-c3ccc(-c4ccn(C)c(=O)c4)cc3O)nn1)C2 [Cpd 241, 4-{3-hydroxy-4-[3-(7-methyl-2,7-diazaspiro[3.5]nonan-2-yl)-1,2,4-triazin-6-yl]phenyl}-1-methylpyridin-2(1H)-one]
≤ 0.1 | CN1CCC2(CC1)CN(c1ncc(-c3ccc(-c4cnn(C)n4)cc3O)nn1)C2 [Cpd 242, 2-[3-(7-methyl-2,7-diazaspiro[3.5]nonan-2-yl)-1,2,4-triazin-6-yl]-5-(2-methyl-2H-1,2,3-triazol-4-yl)phenol]
≤ 0.1 | COc1cc(-c2ccc(-c3cnc(N4CC5(CCN(C)CC5)C4)nn3)c(O)c2)ncn1 [Cpd 243, 5-(6-methoxypyrimidin-4-yl)-2-[3-(7-methyl-2,7-diazaspiro[3.5]nonan-2-yl)-1,2,4-triazin-6-yl]phenol]
3 to 9 | CN1CCC2(CC1)CN(c1ncc(-c3ccc(-c4ncccn4)cc3O)nn1)C2 [Cpd 244, 2-[3-(7-methyl-2,7-diazaspiro[3.5]nonan-2-yl)-1,2,4-triazin-6-yl]-5-(pyrimidin-2-yl)phenol]
≤ 0.1 | CN1CCC2(CC1)CN(c1ncc(-c3ccc(-c4c[nH]nn4)cc3O)nn1)C2 [Cpd 245, 2-[3-(7-methyl-2,7-diazaspiro[3.5]nonan-2-yl)-1,2,4-triazin-6-yl]-5-(1H-1,2,3-triazol-4-yl)phenol]
≤ 0.1 | Cn1cnc(-c2ccc(-c3cnc(N[C@H]4CC(C)(C)NC(C)(C)[C@H]4F)nn3)c(O)c2)cc1=O [Cpd 246, 6-[4-(3-{[(3S,4S)-3-fluoro-2,2,6,6-tetramethylpiperidin-4-yl]amino}-1,2,4-triazin-6-yl)-3-hydroxyphenyl]-3-methylpyrimidin-4(3H)-one]
≤ 0.1 | CC1(C)C[C@H](Nc2ncc(-c3ccc(-c4c[nH]nn4)cc3O)nn2)[C@H](F)C(C)(C)N1 [Cpd 247, 2-(3-{[(3S,4S)-3-fluoro-2,2,6,6-tetramethylpiperidin-4-yl]amino}-1,2,4-triazin-6-yl)-5-(1H-1,2,3-triazol-4-yl)phenol]
≤ 0.1 | CC1(C)C[C@H](Nc2ncc(-c3ccc(-c4cn5ccnc5cn4)cc3O)nn2)[C@H](F)C(C)(C)N1 [Cpd 248, 2-(3-{[(3S,4S)-3-fluoro-2,2,6,6-tetramethylpiperidin-4-yl]amino}-1,2,4-triazin-6-yl)-5-(imidazo[1,2-a]pyrazin-6-yl)phenol]
≤ 0.1 | CC1(C)C[C@H](Nc2ncc(-c3ccc(-c4ccc5nccn5n4)cc3O)nn2)[C@H](F)C(C)(C)N1 [Cpd 249, 2-(3-{[(3S,4S)-3-fluoro-2,2,6,6-tetramethylpiperidin-4-yl]amino}-1,2,4-triazin-6-yl)-5-(imidazo[1,2-b]pyridazin-6-yl)phenol]

Structure (SMILES) | IC50 [µM]
CN(c1ncc(-c2ccc(-c3cc4cnn(C)c4cn3)cc2O)nn1)C1CC(C)(C)NC(C)(C)C1 [Cpd 222, 5-(1-methyl-1H-pyrazolo[3,4-c]pyridin-5-yl)-2-{3-[methyl(2,2,6,6-tetramethylpiperidin-4-yl)amino]-1,2,4-triazin-6-yl}phenol] | ≤ 0.1
